Measured values taken from PubChem BioAssay (NCI).
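Tested at 5 concentrations; 48 h exposure; 96-well plates; endpoints linearly interpolated, else capped at highest concentration. TGI marks complete inhibition of growth.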

Key:
Experiment in all cases: growth of human tumour cells (NCI), 48 h
SNB-78 CNS = tested on: SNB-78 CNS
HT29 colon = tested on: HT29 colon
SNB-75 CNS = tested on: SNB-75 CNS
SF-295 CNS = tested on: SF-295 CNS
HCC-2998 colon = tested on: HCC-2998 colon
SK-MEL-28 melanoma = tested on: SK-MEL-28 melanoma
SF-268 CNS = tested on: SF-268 CNS
HOP-62 NSCLC = tested on: HOP-62 NSCLC
XF 498 CNS = tested on: XF 498 CNS
SNB-19 CNS = tested on: SNB-19 CNS
DMS 114 small cell lung = tested on: DMS 114 small cell lung
786-0 renal = tested on: 786-0 renal
M19-MEL melanoma = tested on: M19-MEL melanoma
KM12 colon = tested on: KM12 colon
RXF 393 renal = tested on: RXF 393 renal
UACC-62 melanoma = tested on: UACC-62 melanoma
ACHN renal = tested on: ACHN renal
UO-31 renal = tested on: UO-31 renal
CCRF-CEM leukemia = tested on: CCRF-CEM leukemia
KM20L2 colon = tested on: KM20L2 colon
K-562 leukemia = tested on: K-562 leukemia
RPMI-8226 leukemia = tested on: RPMI-8226 leukemia
HL-60(TB) leukemia = tested on: HL-60(TB) leukemia
HCT-116 colon = tested on: HCT-116 colon
SN12C renal = tested on: SN12C renal
CAKI-1 renal = tested on: CAKI-1 renal
OVCAR-5 ovarian = tested on: OVCAR-5 ovarian
LXFL 529 NSCLC = tested on: LXFL 529 NSCLC
TK-10 renal = tested on: TK-10 renal
LOX IMVI melanoma = tested on: LOX IMVI melanoma
DLD-1 colon = tested on: DLD-1 colon
MOLT-4 leukemia = tested on: MOLT-4 leukemia
EKVX NSCLC = tested on: EKVX NSCLC
SW-620 colon = tested on: SW-620 colon
DMS 273 small cell lung = tested on: DMS 273 small cell lung
NCI-H522 lung = tested on: NCI-H522 lung
A549 NSCLC = tested on: A549 NSCLC
HOP-18 NSCLC = tested on: HOP-18 NSCLC
MALME-3M melanoma = tested on: MALME-3M melanoma
NCI-H226 lung = tested on: NCI-H226 lung
SK-MEL-5 melanoma = tested on: SK-MEL-5 melanoma
NCI-H460 lung = tested on: NCI-H460 lung
SK-MEL-2 melanoma = tested on: SK-MEL-2 melanoma
UACC-257 melanoma = tested on: UACC-257 melanoma
SK-OV-3 ovarian = tested on: SK-OV-3 ovarian
OVCAR-8 ovarian = tested on: OVCAR-8 ovarian
M14 melanoma = tested on: M14 melanoma
HOP-92 NSCLC = tested on: HOP-92 NSCLC
SR leukemia = tested on: SR leukemia
HCT-15 colon = tested on: HCT-15 colon
NCI-H23 lung = tested on: NCI-H23 lung
COLO 205 colon = tested on: COLO 205 colon
SF-539 CNS = tested on: SF-539 CNS
OVCAR-4 ovarian = tested on: OVCAR-4 ovarian
U251 CNS = tested on: U251 CNS
OVCAR-3 ovarian = tested on: OVCAR-3 ovarian
IGROV1 ovarian = tested on: IGROV1 ovarian
A498 renal = tested on: A498 renal

Cc1ccc(NCC(=O)N2CC(=O)Nc3ccccc32)cc1
TGI (SNB-78 CNS): > 100 µM | TGI (HT29 colon): > 100 µM | TGI (SNB-75 CNS): > 100 µM | TGI (SF-295 CNS): > 100 µM | TGI (HCC-2998 colon): > 100 µM | TGI (SK-MEL-28 melanoma): > 100 µM | TGI (SF-268 CNS): > 100 µM | TGI (HOP-62 NSCLC): > 100 µM | TGI (XF 498 CNS): > 100 µM | TGI (SNB-19 CNS): > 100 µM | TGI (DMS 114 small cell lung): > 100 µM | TGI (786-0 renal): > 100 µM | TGI (M19-MEL melanoma): > 100 µM | TGI (KM12 colon): > 100 µM | TGI (RXF 393 renal): > 100 µM | TGI (UACC-62 melanoma): > 100 µM | TGI (ACHN renal): > 100 µM | TGI (UO-31 renal): > 100 µM | TGI (CCRF-CEM leukemia): > 100 µM | TGI (KM20L2 colon): > 100 µM | TGI (K-562 leukemia): > 100 µM | TGI (RPMI-8226 leukemia): > 100 µM | TGI (HL-60(TB) leukemia): > 100 µM | TGI (HCT-116 colon): > 100 µM | TGI (SN12C renal): > 100 µM | TGI (CAKI-1 renal): > 100 µM | TGI (OVCAR-5 ovarian): > 100 µM | TGI (LXFL 529 NSCLC): > 100 µM | TGI (TK-10 renal): > 100 µM | TGI (LOX IMVI melanoma): > 100 µM | TGI (DLD-1 colon): > 100 µM | TGI (MOLT-4 leukemia): > 100 µM | TGI (EKVX NSCLC): > 100 µM | TGI (SW-620 colon): > 100 µM | TGI (DMS 273 small cell lung): > 100 µM | TGI (NCI-H522 lung): > 100 µM | TGI (A549 NSCLC): > 100 µM | TGI (HOP-18 NSCLC): > 100 µM | TGI (MALME-3M melanoma): > 100 µM | TGI (NCI-H226 lung): > 100 µM | TGI (SK-MEL-5 melanoma): > 100 µM | TGI (NCI-H460 lung): > 100 µM | TGI (SK-MEL-2 melanoma): > 100 µM | TGI (UACC-257 melanoma): > 100 µM | TGI (SK-OV-3 ovarian): > 100 µM | TGI (OVCAR-8 ovarian): > 100 µM | TGI (M14 melanoma): > 100 µM | TGI (HOP-92 NSCLC): > 100 µM | TGI (SR leukemia): > 100 µM | TGI (HCT-15 colon): > 100 µM | TGI (NCI-H23 lung): > 100 µM | TGI (COLO 205 colon): > 100 µM | TGI (SF-539 CNS): > 100 µM | TGI (OVCAR-4 ovarian): > 100 µM | TGI (U251 CNS): > 100 µM | TGI (OVCAR-3 ovarian): > 100 µM

O=C(/C=C/c1ccccc1Cl)c1cccc2ccccc12
TGI (SNB-78 CNS): 44.8 µM | TGI (HT29 colon): 23.6 µM | TGI (SNB-75 CNS): 18.3 µM | TGI (SF-295 CNS): 25.4 µM | TGI (HCC-2998 colon): 27.9 µM | TGI (SK-MEL-28 melanoma): 28.1 µM | TGI (SF-268 CNS): 28.4 µM | TGI (HOP-62 NSCLC): 28.9 µM | TGI (IGROV1 ovarian): 29.6 µM | TGI (SNB-19 CNS): 16.8 µM | TGI (DMS 114 small cell lung): 15.2 µM | TGI (786-0 renal): 17.9 µM | TGI (M19-MEL melanoma): 23.5 µM | TGI (KM12 colon): 16.8 µM | TGI (RXF 393 renal): 28.6 µM | TGI (UACC-62 melanoma): 28.6 µM | TGI (ACHN renal): 30.4 µM | TGI (UO-31 renal): 21.3 µM | TGI (CCRF-CEM leukemia): 45.2 µM | TGI (KM20L2 colon): 19.6 µM | TGI (K-562 leukemia): > 100 µM | TGI (RPMI-8226 leukemia): 91 µM | TGI (HL-60(TB) leukemia): 37.7 µM | TGI (HCT-116 colon): 12.8 µM | TGI (SN12C renal): > 100 µM | TGI (CAKI-1 renal): 25.4 µM | TGI (OVCAR-5 ovarian): 26.7 µM | TGI (LXFL 529 NSCLC): 11.9 µM | TGI (TK-10 renal): 29.2 µM | TGI (LOX IMVI melanoma): 24.3 µM | TGI (DLD-1 colon): 25.1 µM | TGI (MOLT-4 leukemia): 5.59 µM | TGI (EKVX NSCLC): 25.4 µM | TGI (SW-620 colon): 4.06 µM | TGI (DMS 273 small cell lung): 31.6 µM | TGI (NCI-H522 lung): 18.6 µM | TGI (A549 NSCLC): 34 µM | TGI (HOP-18 NSCLC): 29.7 µM | TGI (MALME-3M melanoma): 30.1 µM | TGI (NCI-H226 lung): > 100 µM | TGI (A498 renal): 27.5 µM | TGI (SK-MEL-5 melanoma): 34 µM | TGI (NCI-H460 lung): 19.7 µM | TGI (SK-MEL-2 melanoma): 35.5 µM | TGI (UACC-257 melanoma): 32 µM | TGI (SK-OV-3 ovarian): 34.8 µM | TGI (OVCAR-8 ovarian): 4.19 µM | TGI (M14 melanoma): 30.5 µM | TGI (HOP-92 NSCLC): 34.9 µM | TGI (SR leukemia): 9.16 µM | TGI (HCT-15 colon): 17.2 µM | TGI (NCI-H23 lung): 28.1 µM | TGI (COLO 205 colon): 33.3 µM | TGI (SF-539 CNS): 23.3 µM | TGI (OVCAR-4 ovarian): 16.6 µM | TGI (U251 CNS): 8.45 µM | TGI (OVCAR-3 ovarian): 15 µM
